Experimental data published in ChEMBL document CHEMBL1201862, “PubChem BioAssay data set” (2004).
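Step 1: Grow cells in 96-well plates. Step 2: Expose to compound for 48 hours at 5 concentrations. Step 3: Interpolate endpoints linearly; if unreached, use highest concentration. Here, GI50 denotes the concentration required for 50% inhibition of growth.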 Calls of active or inactive are those of the source. Cut-off read from the data, not from the text of the source: active = GI50 up to about 1.1 µM and inactive = higher.

Columns and labels:
Experiment in all cases: NCI anticancer screen, dose series, 48 h
[1] = test system: DU-145
[2] = test system: HT-29
[3] = test system: NCI-H23
[4] = test system: HCC 2998
[5] = test system: A498
[6] = test system: MDA-MB-435
[7] = test system: A549
[8] = test system: Hs-578T
[9] = test system: HCT-15
[10] = test system: SF-539
[11] = test system: MDA-N
[12] = test system: 786-0
[13] = test system: PC-3
[14] = test system: IGROV-1
[15] = test system: NCI-H460
[16] = test system: U-251
[17] = test system: MDA-MB-231
[18] = test system: TK-10
[19] = test system: HCT-116
[20] = test system: OVCAR-8
[21] = test system: SK-MEL-5
[22] = test system: LOX IMVI
[23] = test system: OVCAR-5
[24] = test system: NCI-H226
[25] = test system: SK-MEL-28
[26] = test system: ACHN
[27] = test system: MOLT-4
[28] = test system: T47D
[29] = test system: SN12C
[30] = test system: M14
[31] = test system: OVCAR-4
[32] = test system: UO-31
[33] = test system: UACC-257
[34] = test system: BT-549
[35] = test system: SK-OV-3
[36] = test system: KM12
[37] = test system: CCRF-CEM
[38] = test system: CAKI-1
[39] = test system: K562
[40] = test system: UACC-62
[41] = test system: HL-60
[42] = test system: HOP-92
[43] = test system: RXF 393
[44] = test system: SK-MEL-2
[45] = test system: NCI/ADR-RES
[46] = test system: HOP-62
[47] = test system: MCF7
[48] = test system: SF-268
[49] = test system: SR
[50] = test system: SNB-75
[51] = test system: Malme-3M
[52] = test system: SF-295
[53] = test system: SNB-19
[54] = test system: NCI-H522
[55] = test system: SW-620
[56] = test system: EKVX
[57] = test system: RPMI-8226
[58] = test system: COLO 205
[59] = test system: OVCAR-3

`COCn1c(C)c(C)c2c(=O)oc(C)nc21` was tested, and the GI50 [1] was > 100 µM (inactive), the GI50 [2] was > 100 µM (inactive) and the GI50 [3] was > 100 µM (inactive). For the same molecule, the GI50 [4] was > 100 µM (inactive), the GI50 [5] was > 100 µM (inactive) and the GI50 [6] was > 100 µM (inactive). The GI50 [7] was > 100 µM (inactive), the GI50 [8] was > 100 µM (inactive) and the GI50 [9] was greater than 100 µM. The GI50 [10] was > 100 µM (inactive), the GI50 [11] was > 100 µM (inactive) and the GI50 [12] was > 100 µM (inactive). For the same molecule, the GI50 [13] was > 100 µM (inactive), the GI50 [14] was > 100 µM (inactive) and the GI50 [15] was > 100 µM (inactive). For the same molecule, the GI50 [16] was > 100 µM (inactive), the GI50 [17] was > 100 µM (inactive) and the GI50 [18] was > 100 µM (inactive). The GI50 [19] was > 100 µM (inactive), the GI50 [20] was > 100 µM (inactive) and the GI50 [21] was > 100 µM (inactive). For the same molecule, the GI50 [22] was > 100 µM (inactive), the GI50 [23] was > 100 µM (inactive) and the GI50 [24] was > 100 µM (inactive). For the same molecule, the GI50 [25] was > 100 µM (inactive), the GI50 [26] was > 100 µM (inactive) and the GI50 [27] was > 100 µM (inactive). For the same molecule, the GI50 [28] was > 100 µM (inactive), the GI50 [29] was > 100 µM (inactive) and the GI50 [30] was > 100 µM (inactive). The GI50 [31] was > 100 µM (inactive), the GI50 [32] was 89.1 µM (inactive) and the GI50 [33] was > 100 µM (inactive). The GI50 [34] was > 100 µM (inactive), the GI50 [35] was > 100 µM (inactive) and the GI50 [36] was > 100 µM (inactive). The GI50 [37] was > 100 µM (inactive), the GI50 [38] was 0.288 µM (active) and the GI50 [39] was > 100 µM (inactive). For the same molecule, the GI50 [40] was > 100 µM (inactive), the GI50 [41] was > 100 µM (inactive) and the GI50 [42] was > 100 µM (inactive). The GI50 [43] was > 100 µM (inactive), the GI50 [44] was > 100 µM (inactive) and the GI50 [45] was > 100 µM (inactive). The GI50 [46] was 70.8 µM (inactive), the GI50 [47] was > 100 µM (inactive) and the GI50 [48] was > 100 µM (inactive). The GI50 [49] was > 100 µM (inactive), the GI50 [50] was 83.4 µM (inactive) and the GI50 [51] was > 100 µM (inactive). The GI50 [52] was > 100 µM (inactive), the GI50 [53] was > 100 µM (inactive) and the GI50 [54] was 94.2 µM (inactive). The GI50 [55] was > 100 µM (inactive), the GI50 [56] was > 100 µM (inactive) and the GI50 [57] was > 100 µM (inactive). The GI50 [58] was > 100 µM (inactive).

For `O=S(=O)(O)c1cc(/N=[N+](\[O-])c2cc(S(=O)(=O)O)c3ccccc3c2)cc2ccccc12`, the GI50 [1] was 19.5 µM (inactive), the GI50 [2] was > 100 µM (inactive) and the GI50 [3] was 25.5 µM (inactive). For the same molecule, the GI50 [4] was > 100 µM (inactive), the GI50 [5] was > 100 µM (inactive) and the GI50 [6] was > 100 µM (inactive). For the same molecule, the GI50 [7] was > 100 µM (inactive), the GI50 [8] was 33.5 µM (inactive) and the GI50 [9] was greater than 100 µM. The GI50 [10] was 16.8 µM (inactive), the GI50 [11] was 20 µM (inactive) and the GI50 [12] was > 100 µM (inactive). For the same molecule, the GI50 [13] was > 100 µM (inactive), the GI50 [59] was 12.4 µM (inactive) and the GI50 [14] was 33.9 µM (inactive). The GI50 [15] was > 100 µM (inactive), the GI50 [16] was 60.4 µM (inactive) and the GI50 [17] was > 100 µM (inactive). The GI50 [18] was > 100 µM (inactive), the GI50 [19] was > 100 µM (inactive) and the GI50 [20] was > 100 µM (inactive). The GI50 [21] was 17.9 µM (inactive), the GI50 [22] was 25.2 µM (inactive) and the GI50 [23] was 32.5 µM (inactive). For the same molecule, the GI50 [24] was > 100 µM (inactive), the GI50 [25] was > 100 µM (inactive) and the GI50 [26] was > 100 µM (inactive). The GI50 [28] was > 100 µM (inactive), the GI50 [29] was 23.6 µM (inactive) and the GI50 [30] was 35.7 µM (inactive). For the same molecule, the GI50 [31] was 20.5 µM (inactive), the GI50 [32] was 20.9 µM (inactive) and the GI50 [33] was 51.1 µM (inactive). The GI50 [34] was 19.5 µM (inactive), the GI50 [35] was > 100 µM (inactive) and the GI50 [36] was > 100 µM (inactive). The GI50 [37] was 29.7 µM (inactive), the GI50 [38] was 23.1 µM (inactive) and the GI50 [39] was 30.7 µM (inactive). The GI50 [40] was > 100 µM (inactive), the GI50 [41] was 30 µM (inactive) and the GI50 [42] was > 100 µM (inactive). For the same molecule, the GI50 [43] was 43.5 µM (inactive), the GI50 [44] was 24.7 µM (inactive) and the GI50 [45] was > 100 µM (inactive). For the same molecule, the GI50 [46] was 48 µM (inactive), the GI50 [47] was 30.1 µM (inactive) and the GI50 [48] was > 100 µM (inactive). The GI50 [49] was 38.5 µM (inactive), the GI50 [50] was 16.3 µM (inactive) and the GI50 [51] was 45.5 µM (inactive). The GI50 [52] was 35.6 µM (inactive), the GI50 [53] was 46.7 µM (inactive) and the GI50 [54] was 26.2 µM (inactive). The GI50 [55] was 31.8 µM (inactive), the GI50 [56] was 39.4 µM (inactive) and the GI50 [57] was 28.1 µM (inactive). For the same molecule, the GI50 [58] was > 100 µM (inactive).
